Legend:
CYP3A4/5 = assay: Example 1 pharmacokinetic interaction study, rivoceranib 200 mg + Cooperstown 5+1 cocktail: midazolam probe; conditions: for AUC(0-t), Geometric Mean Ratio, (Cooperstown Cocktail + Rivoceranib)/Cooperstown Cocktail Alone / AUC(0-∞), Geometric Mean Ratio, (Cooperstown Cocktail + Rivoceranib)/Cooperstown Cocktail Alone / Cmax, Geometric Mean Ratio, (Cooperstown Cocktail + Rivoceranib)/Cooperstown Cocktail Alone: rivoceranib 200 mg daily, D11 vs D1
CYP3A = assay: Example 2 phase 1 drug-drug interaction study, rivoceranib 700 mg QD + 5+1 cocktail: midazolam probe; set-up: AUC(0-t), Mean (CV %), 5 + 1 cocktail alone / AUC(0-t), Geometric LSM, 5 + 1 cocktail alone / AUC(0-t), Mean (CV %), Rivoceranib plus 5 + 1 cocktail / AUC(0-t), Geometric LSM, Rivoceranib plus 5 + 1 cocktail / AUC(0-∞), Mean (CV %), 5 + 1 cocktail alone / AUC(0-∞), Geometric LSM, 5 + 1 cocktail alone / AUC(0-∞), Mean (CV %), Rivoceranib plus 5 + 1 cocktail / AUC(0-∞), Geometric LSM, Rivoceranib plus 5 + 1 cocktail: unit not given beside the values; conditions: for AUC(0-t), Geometrical mean Ratio, % (90% CI) / AUC(0-∞), Geometrical mean Ratio, % (90% CI) / Cmax, Geometrical mean Ratio, % (90% CI): rivoceranib 700 mg QD, 100*LSM Rivoceranib Plus 5+1 Cocktail/LSM 5+1 Cocktail Alone; for AUC(0-t) / AUC(0-inf) / Cmax: human, in vivo
Protocol: (§1) This example describes a pharmacokinetic interaction study in healthy human volunteers dosed with 700 mg rivoceranib and a mixture of cytochrome P450 enzyme (CYP1A2, CYP2C9, CYP2C19, CYP2D6, and CYP3A) substrates.
(§2) The primary objective of the study was to evaluate the effect of rivoceranib 700 mg once daily (QD) on the pharmacokinetics (PK) of various CYP substrates to determine drug-drug interactions of rivoceranib.
(§3) This was an open-label, 2-treatment, fixed-sequence drug-drug interaction phase 1 study designed to evaluated the impact of multiple oral doses of 700 mg rivoceranib on the single-dose PK of CYP enzyme substrates administered in a 5+1 Cooperstown probe cocktail (caffeine [CYP1A2], S- and R-warfarin [CYP2C9]+vitamin K, omeprazole [CYP2C19], dextromethorphan [CYP2D6], and midazolam [CYP3A]) in healthy volunteers (N=32). On day 1, volunteers received a single dose of the 5+1 cocktail comprising 200 mg caffeine, 10 mg S- and R-warfarin with 10 mg vitamin K, 40 mg omeprazole, 30 mg dextromethorphan, and 2 mg midazolam. Blood samples were collected pre-dose on day 1 and up to 120 hours post-dose for PK analyses of the substrates in the 5+1 cocktail. On days 6 to 15, volunteers received 700 mg rivoceranib once daily for 10 consecutive days with a single dose of the 5+1 cocktail administered on day 11. Blood samples were collected pre-dose on day 11 and up to 120 hours post cocktail dosing (day 16) for PK analyses. Each dosing was under fasted conditions. There was a washout period of 5 days between day 1 dosing and the first rivoceranib dose on day 6; the 2 cocktail dosings were spaced by 10 days.

CYP2D6 [1] = target: T1, CYP2D6 (Homo sapiens, UniProt P10635); assay: Example 2 phase 1 drug-drug interaction study, rivoceranib 700 mg QD + 5+1 cocktail: dextromethorphan probe; conditions: for AUC(0-t) / AUC(0-inf) / Cmax: human, in vivo, healthy volunteers; for AUC(0-t), Geometrical mean Ratio, % (90% CI) / AUC(0-∞), Geometrical mean Ratio, % (90% CI) / Cmax, Geometrical mean Ratio, % (90% CI): rivoceranib 700 mg QD, 100*LSM Rivoceranib Plus 5+1 Cocktail/LSM 5+1 Cocktail Alone
Protocol: as §1, §2, §3

CYP2D6 [2] = target: T1, CYP2D6; assay: Example 1 pharmacokinetic interaction study, rivoceranib 200 mg + Cooperstown 5+1 cocktail: dextromethorphan probe; conditions: for AUC(0-t), Geometric Mean Ratio, (Cooperstown Cocktail + Rivoceranib)/Cooperstown Cocktail Alone / AUC(0-∞), Geometric Mean Ratio, (Cooperstown Cocktail + Rivoceranib)/Cooperstown Cocktail Alone / Cmax, Geometric Mean Ratio, (Cooperstown Cocktail + Rivoceranib)/Cooperstown Cocktail Alone: rivoceranib 200 mg daily, D11 vs D1
CYP2C19 = CYP2C19 (Homo sapiens, UniProt P33261); conditions: in vivo, po
[3] = healthy volunteers, 5+1 cocktail day 11 + rivoceranib 700 mg QD days 6-15
[4] = healthy volunteers, single oral 5+1 cocktail dose day 1, fasted
[5] = Geometric LSM, Rivoceranib plus 5 + 1 cocktail, 5+1 cocktail day 11 + rivoceranib 700 mg QD days 6-15
[6] = Mean (CV %), Rivoceranib plus 5 + 1 cocktail, 5+1 cocktail day 11 + rivoceranib 700 mg QD days 6-15
[7] = po, Geometric LSM, 5 + 1 cocktail alone, single oral 5+1 cocktail dose day 1, fasted
[8] = po, Mean (CV %), 5 + 1 cocktail alone, single oral 5+1 cocktail dose day 1, fasted
[9] = rivoceranib 200 mg once daily, oral substrate
[10] = Geometric LSM, Rivoceranib plus 5 + 1 cocktail, healthy volunteers, 5+1 cocktail day 11 + rivoceranib 700 mg QD days 6-15
[11] = Mean (CV %), Rivoceranib plus 5 + 1 cocktail, healthy volunteers, 5+1 cocktail day 11 + rivoceranib 700 mg QD days 6-15
[12] = po, 2 mg, Geometric LSM, 5 + 1 cocktail alone, healthy volunteers, single oral 5+1 cocktail dose day 1, fasted
[13] = po, 2 mg, Mean (CV %), 5 + 1 cocktail alone, healthy volunteers, single oral 5+1 cocktail dose day 1, fasted

Chain of CYP2C19 (P33261 whole entry): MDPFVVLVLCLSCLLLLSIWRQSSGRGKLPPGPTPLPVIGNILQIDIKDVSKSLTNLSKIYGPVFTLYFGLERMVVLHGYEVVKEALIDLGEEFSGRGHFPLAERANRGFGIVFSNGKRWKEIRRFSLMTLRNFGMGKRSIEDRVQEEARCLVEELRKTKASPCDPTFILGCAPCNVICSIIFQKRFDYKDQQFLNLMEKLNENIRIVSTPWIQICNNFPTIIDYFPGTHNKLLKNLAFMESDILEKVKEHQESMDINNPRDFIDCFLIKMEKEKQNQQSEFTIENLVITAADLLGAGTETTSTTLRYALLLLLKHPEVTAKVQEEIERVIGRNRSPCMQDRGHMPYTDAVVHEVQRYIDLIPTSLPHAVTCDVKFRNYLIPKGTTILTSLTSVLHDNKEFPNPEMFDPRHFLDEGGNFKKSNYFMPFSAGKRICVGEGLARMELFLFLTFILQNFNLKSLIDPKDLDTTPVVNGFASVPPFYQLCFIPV
T1 sequence (P10635 whole entry): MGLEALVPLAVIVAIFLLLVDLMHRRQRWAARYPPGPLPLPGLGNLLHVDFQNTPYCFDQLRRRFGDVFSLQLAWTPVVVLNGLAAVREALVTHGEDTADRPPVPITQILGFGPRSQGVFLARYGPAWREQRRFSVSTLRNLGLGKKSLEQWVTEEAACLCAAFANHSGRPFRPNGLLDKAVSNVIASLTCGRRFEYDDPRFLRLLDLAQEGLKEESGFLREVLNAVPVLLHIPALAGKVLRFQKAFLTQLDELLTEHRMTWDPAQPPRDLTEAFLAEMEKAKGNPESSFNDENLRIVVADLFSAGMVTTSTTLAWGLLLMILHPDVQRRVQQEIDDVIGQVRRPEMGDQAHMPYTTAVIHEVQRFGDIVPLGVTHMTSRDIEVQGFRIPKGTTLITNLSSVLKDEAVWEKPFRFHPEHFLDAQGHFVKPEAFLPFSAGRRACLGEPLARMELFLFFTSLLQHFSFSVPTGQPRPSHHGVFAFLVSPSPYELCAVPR

OCc1ncc2n1-c1ccc(Cl)cc1C(c1ccccc1F)=NC2 [1-hydroxymidazolam]
AUC(0-t), Geometric Mean Ratio, (Cooperstown Cocktail + Rivoceranib)/Cooperstown Cocktail Alone (CYP3A4/5): 1.2627 | AUC(0-∞), Geometric Mean Ratio, (Cooperstown Cocktail + Rivoceranib)/Cooperstown Cocktail Alone (CYP3A4/5): 1.1355 | Cmax, Geometric Mean Ratio, (Cooperstown Cocktail + Rivoceranib)/Cooperstown Cocktail Alone (CYP3A4/5): 0.8913 | AUC(0-t), Geometric LSM, Rivoceranib plus 5 + 1 cocktail (CYP3A; [3]): 13.89 | AUC(0-t), Mean (CV %), Rivoceranib plus 5 + 1 cocktail (CYP3A; [3]): 14.37 | AUC(0-∞), Geometric LSM, Rivoceranib plus 5 + 1 cocktail (CYP3A; [3]): 15.16 | AUC(0-∞), Mean (CV %), Rivoceranib plus 5 + 1 cocktail (CYP3A; [3]): 15.67 | Cmax, Geometric LSM, Rivoceranib plus 5 + 1 cocktail (CYP3A; [3]): 4.639 ng/mL | Cmax, Mean (CV %), Rivoceranib plus 5 + 1 cocktail (CYP3A; [3]): 4.797 ng/mL | AUC(0-t), Geometric LSM, 5 + 1 cocktail alone (CYP3A; [4]): 9.643 | AUC(0-t), Mean (CV %), 5 + 1 cocktail alone (CYP3A; [4]): 9.643 | AUC(0-∞), Geometric LSM, 5 + 1 cocktail alone (CYP3A; [4]): 10.21 | AUC(0-∞), Mean (CV %), 5 + 1 cocktail alone (CYP3A; [4]): 10.18 | Cmax, Geometric LSM, 5 + 1 cocktail alone (CYP3A; [4]): 4.115 ng/mL | Cmax, Mean (CV %), 5 + 1 cocktail alone (CYP3A; [4]): 4.115 ng/mL | AUC(0-t), Geometrical mean Ratio, % (90% CI) (CYP3A): 144.05% | AUC(0-∞), Geometrical mean Ratio, % (90% CI) (CYP3A): 148.48% | Cmax, Geometrical mean Ratio, % (90% CI) (CYP3A): 112.73%

COc1ccc2c(c1)[C@]13CCCC[C@@H]1[C@H](C2)N(C)CC3 [dextromethorphan]
AUC(0-t) (CYP2D6 [1]; [5]): 27.1 ng·h/mL | AUC(0-t) (CYP2D6 [1]; [6]): 23.7 ng·h/mL | AUC(0-inf) (CYP2D6 [1]; [5]): 36.2 ng·h/mL | AUC(0-inf) (CYP2D6 [1]; [6]): 33.2 ng·h/mL | Cmax (CYP2D6 [1]; [5]): 2.78 ng/mL | Cmax (CYP2D6 [1]; [6]): 2.53 ng/mL | AUC(0-t) (CYP2D6 [1]; [7]): 10.4 ng·h/mL | AUC(0-t) (CYP2D6 [1]; [8]): 10.4 ng·h/mL | AUC(0-inf) (CYP2D6 [1]; [7]): 13.3 ng·h/mL | AUC(0-inf) (CYP2D6 [1]; [8]): 14 ng·h/mL | Cmax (CYP2D6 [1]; [7]): 1.4 ng/mL | Cmax (CYP2D6 [1]; [8]): 1.4 ng/mL | increase in exposure with rivoceranib (CYP2D6 [1]; rivoceranib 700 mg): 2- to 2.7 fold | AUC(0-t), Geometrical mean Ratio, % (90% CI) (CYP2D6 [1]): 259.87% | AUC(0-∞), Geometrical mean Ratio, % (90% CI) (CYP2D6 [1]): 272.50% | Cmax, Geometrical mean Ratio, % (90% CI) (CYP2D6 [1]): 198.80% | AUC(0-t), Geometric Mean Ratio, (Cooperstown Cocktail + Rivoceranib)/Cooperstown Cocktail Alone (CYP2D6 [2]): 2.5448 | AUC(0-∞), Geometric Mean Ratio, (Cooperstown Cocktail + Rivoceranib)/Cooperstown Cocktail Alone (CYP2D6 [2]): 2.6650 | Cmax, Geometric Mean Ratio, (Cooperstown Cocktail + Rivoceranib)/Cooperstown Cocktail Alone (CYP2D6 [2]): 1.9039 | increase in AUC0-∞ on coadministration of rivoceranib relative to Cooperstown 5+1 cocktail only (CYP2D6 [2]; [9]): 144% | increase in Cmax on coadministration of rivoceranib relative to Cooperstown 5+1 cocktail only (CYP2D6 [2]; [9]): 70%

Cc1ncc2n1-c1ccc(Cl)cc1C(c1ccccc1F)=NC2 [midazolam]
AUC(0-t), Geometric Mean Ratio, (Cooperstown Cocktail + Rivoceranib)/Cooperstown Cocktail Alone (CYP3A4/5): 1.5573 | AUC(0-∞), Geometric Mean Ratio, (Cooperstown Cocktail + Rivoceranib)/Cooperstown Cocktail Alone (CYP3A4/5): 1.4451 | Cmax, Geometric Mean Ratio, (Cooperstown Cocktail + Rivoceranib)/Cooperstown Cocktail Alone (CYP3A4/5): 1.1509 | increase in AUC0-∞ following coadministration with rivoceranib (CYP3A4/5; [9]): 65% | increase in Cmax following coadministration with rivoceranib (CYP3A4/5; [9]): 16% | AUC(0-t) (CYP3A; [10]): 75.2 ng·h/mL | AUC(0-t) (CYP3A; [11]): 75.5 ng·h/mL | AUC(0-inf) (CYP3A; [10]): 82.1 ng·h/mL | AUC(0-inf) (CYP3A; [11]): 82.5 ng·h/mL | Cmax (CYP3A; [10]): 25.7 ng/mL | Cmax (CYP3A; [11]): 25.7 ng/mL | AUC(0-t) (CYP3A; [12]): 28.1 ng·h/mL | AUC(0-t) (CYP3A; [13]): 28.1 ng·h/mL | AUC(0-inf) (CYP3A; [12]): 29.7 ng·h/mL | AUC(0-inf) (CYP3A; [13]): 29.7 ng·h/mL | Cmax (CYP3A; [12]): 10.8 ng/mL | Cmax (CYP3A; [13]): 10.8 ng/mL | increase in exposure following coadministration with rivoceranib (CYP3A; rivoceranib 700 mg): 2.4- to 2.8 fold | AUC(0-t), Geometrical mean Ratio, % (90% CI) (CYP3A): 267.59% | AUC(0-∞), Geometrical mean Ratio, % (90% CI) (CYP3A): 276.27% | Cmax, Geometrical mean Ratio, % (90% CI) (CYP3A): 237.88%

CN1CC[C@@]23CCCC[C@@H]2[C@@H]1Cc1ccc(O)cc13 [dextrorphan]
AUC(0-t) (CYP2D6 [1]; [5]): 33.7 ng·h/mL | AUC(0-t) (CYP2D6 [1]; [6]): 34.5 ng·h/mL | AUC(0-inf) (CYP2D6 [1]; [5]): 37.1 ng·h/mL | AUC(0-inf) (CYP2D6 [1]; [6]): 37.8 ng·h/mL | Cmax (CYP2D6 [1]; [5]): 4.74 ng/mL | Cmax (CYP2D6 [1]; [6]): 4.88 ng/mL | AUC(0-t) (CYP2D6 [1]; [7]): 26.1 ng·h/mL | AUC(0-t) (CYP2D6 [1]; [8]): 26.1 ng·h/mL | AUC(0-inf) (CYP2D6 [1]; [7]): 27.9 ng·h/mL | AUC(0-inf) (CYP2D6 [1]; [8]): 27.9 ng·h/mL | Cmax (CYP2D6 [1]; [7]): 4.66 ng/mL | Cmax (CYP2D6 [1]; [8]): 4.66 ng/mL | AUC(0-t), Geometrical mean Ratio, % (90% CI) (CYP2D6 [1]): 129.07% | AUC(0-∞), Geometrical mean Ratio, % (90% CI) (CYP2D6 [1]): 133.22% | Cmax, Geometrical mean Ratio, % (90% CI) (CYP2D6 [1]): 101.70% | AUC(0-t), Geometric Mean Ratio, (Cooperstown Cocktail + Rivoceranib)/Cooperstown Cocktail Alone (CYP2D6 [2]): 1.1509 | AUC(0-∞), Geometric Mean Ratio, (Cooperstown Cocktail + Rivoceranib)/Cooperstown Cocktail Alone (CYP2D6 [2]): 1.1104 | Cmax, Geometric Mean Ratio, (Cooperstown Cocktail + Rivoceranib)/Cooperstown Cocktail Alone (CYP2D6 [2]): 0.8950

COc1ccc2nc([S+]([O-])Cc3ncc(CO)c(OC)c3C)[nH]c2c1 (stereo not drawn) [5-hydroxyomeprazole]
AUC(0-t), Geometric LS Mean, Cooperstown Cocktail Alone (CYP2C19): 6.6476 | AUC(0-∞), Geometric LS Mean, Cooperstown Cocktail Alone (CYP2C19): 6.6678 | Cmax, Geometric LS Mean, Cooperstown Cocktail Alone (CYP2C19): 5.3867
